Results on three compounds are retold here after patent publication US9840474B2, “Pyrimidine compounds and use as anti-cervical cancer thereof” (SICHUAN UNIVERSITY, priority 2014, dated 2017).

Assay type in all cases: cell-based
One assay relates to HPV16 E6 mRNA. Kind of assay: Real-time PCR of HPV16 E6 mRNA expression in Caski cells. Conditions: for effect on HPV E6 mRNA in Caski cells / inhibitory activity on E6 compared with positive control cidofovir / E6 One independent tests (inhibitory rate) / E6 Two independent tests (inhibitory rate): Caski cells; for E6 One independent tests (inhibitory rate) / E6 Two independent tests (inhibitory rate) / inhibition at 0.2 µg/mL: 48 h; for E6 One independent tests (inhibitory rate): test one; for E6 Two independent tests (inhibitory rate): test two; for inhibition at 0.2 µg/mL: Human papillomavirus 16, Ca-Ski. From the text: (§1) In order to investigate in vitro effects of CH01 and CH02 against cervical cancer and HPV16 viruses, in the experiment, the cytotoxicity of above compounds, together with their effects on HPV16 E6 and E7 mRNA, is investigated by culture with human cervical cancer cells (HPV16 positive). Structures of test compounds are shown as follows:
(§2) [Experimental Method] • 1. Cytotoxicity: MTT method was used, and Reed-Muench method was used to calculate indexes median toxic concentration (TC50) and maximum non-toxic concentation (TC0). • 2. HPV16 E6 and E7 mRNA: The cell culture was treated for 48 h at maximum non-toxic concentration, and then the culture was terminated. Total RNA in cells was extracted, and effects of test samples on HPV16 E6 and E7 mRNA were measured using Real-time PCR method.
(§3) Effects of Samples on Expression of HPV16 E6 mRNA and HPV16 E7 mRNA in Caski Cells
On the technique in general: Quantitative PCR measures a nucleic acid by following its amplification.

In the next assay the test system is HPV16 E7 mRNA. Nature of the assay: Real-time PCR of HPV16 E7 mRNA expression in Caski cells. Conditions: for effect on HPV E7 mRNA in Caski cells / inhibitory activity on E7 compared with positive control cidofovir / E7 One independent tests (inhibitory rate) / E7 Two independent tests (inhibitory rate): Caski cells; for E7 One independent tests (inhibitory rate) / E7 Two independent tests (inhibitory rate) / inhibition at 0.2 µg/mL: 48 h; for E7 One independent tests (inhibitory rate): test one; for E7 Two independent tests (inhibitory rate): test two; for inhibition at 0.2 µg/mL: Human papillomavirus 16, Ca-Ski.
From the text: as §1, §2, §3

For assay [1], the system named is human cervical carcinoma Caski cells. Nature of the assay: MTT cytotoxicity / inhibition test of cervical cancer Caski cells. As to conditions: for OD: Caski cells, MTT; for IC50 value: cervical cancer Caski cells.
From the text: as §1, §2
[Experimental Result] • 1. Inhibition Test of Cervical Cancer Caski Cells

Where two headings read alike, the source gives them in different places.

Regarding “4-(2-methoxybenzylamino)-5-formaldoxime-6-chloropyrimidine [CH02]”, the “effect on HPV E6 mRNA in Caski cells” value in the assay on HPV16 E6 mRNA is recorded as “showed inhibitory effects”. Moreover, the “inhibitory activity on E6 compared with positive control cidofovir” value in the assay with HPV16 E6 mRNA is “better inhibitory activity than the positive control cidofovir”. For the same compound, the entries for the “E6 One independent tests (inhibitory rate)” value in the assay on HPV16 E6 mRNA (0.067 μg/ml) and in the assay on HPV16 E6 mRNA (0.2 μg/ml) were 0.461 and 0.599, respectively. Also, the “E6 Two independent tests (inhibitory rate)” value in the assay with HPV16 E6 mRNA (0.067 μg/ml) is listed as 0.481; in the assay with HPV16 E6 mRNA (0.2 μg/ml), 0.549. Also, the “effect on HPV E7 mRNA in Caski cells” value with HPV16 E7 mRNA was “showed inhibitory effects”. Moreover, in the assay with HPV16 E7 mRNA, the “inhibitory activity on E7 compared with positive control cidofovir” value is “better inhibitory activity than the positive control cidofovir”. For the same compound, the results for the “E7 One independent tests (inhibitory rate)” value in the assay with HPV16 E7 mRNA (0.067 μg/ml) and in the assay with HPV16 E7 mRNA (0.2 μg/ml) were 0.484 and 0.516, respectively. For the same compound, the “E7 Two independent tests (inhibitory rate)” value was 0.488 in the assay on HPV16 E7 mRNA (0.067 μg/ml) and 0.526 in the assay on HPV16 E7 mRNA (0.2 μg/ml). Further, the OD in assay [1] (0.097656 μg/ml) was 0.8357; in assay [1] (0.195313 μg/ml), 0.78; in assay [1] (0.390625 μg/ml), 0.4733; in assay [1] (0.78125 μg/ml), 0.3837; in assay [1] (1.5625 μg/ml), 0.313; in assay [1] (3.125 μg/ml), 0.2943. The OD in assay [1] (6.25 μg/ml) is 0.2727; in assay [1] (12.5 μg/ml), 0.2743; in assay [1] (25 μg/ml), 0.2803; in assay [1] (50 μg/ml), 0.3087; in assay [1] (100 μg/ml) it was 0.3757; in assay [1] (200 μg/ml), 0.5557. In addition, the IC50 value entry in assay [1] was “about 0.4 μg/ml”.
As to `Nc1ccn(C[C@@H](CO)OCP(=O)(O)O)c(=O)n1` [cidofovir, reference compound], the inhibition at 0.2 µg/mL in the assay on HPV16 E6 mRNA (read-out: E6 One independent tests (inhibitory rate)) came out at 32.6%; in the assay on HPV16 E6 mRNA (read-out: E6 Two independent tests (inhibitory rate)) it was 33.6%; in the assay on HPV16 E7 mRNA (read-out: E7 One independent tests (inhibitory rate)), 32.1%; with HPV16 E7 mRNA (read-out: E7 Two independent tests (inhibitory rate)), 32.4%.
In the case of “4-(4-tert-butylbenzylamino)-5-formaldoxime-6-chloropyrimidine [CH01]”, the “effect on HPV E6 mRNA in Caski cells” value in the assay with HPV16 E6 mRNA is “showed inhibitory effects”. Also, in the assay with HPV16 E6 mRNA, the “inhibitory activity on E6 compared with positive control cidofovir” value is “better inhibitory activity than the positive control cidofovir”. Further, the “E6 One independent tests (inhibitory rate)” value was 0.489 with HPV16 E6 mRNA (0.067 μg/ml) and 0.577 in the assay on HPV16 E6 mRNA (0.2 μg/ml). The “E6 Two independent tests (inhibitory rate)” value in the assay with HPV16 E6 mRNA (0.067 μg/ml) was 0.494; in the assay with HPV16 E6 mRNA (0.2 μg/ml) it was 0.553. In addition, the “effect on HPV E7 mRNA in Caski cells” value with HPV16 E7 mRNA is “showed inhibitory effects”. Further, the “inhibitory activity on E7 compared with positive control cidofovir” value in the assay with HPV16 E7 mRNA is reported as “better inhibitory activity than the positive control cidofovir”. In addition, the “E7 One independent tests (inhibitory rate)” value turned out to be 0.488 with HPV16 E7 mRNA (0.067 μg/ml) and 0.484 in the assay on HPV16 E7 mRNA (0.2 μg/ml). Moreover, the “E7 Two independent tests (inhibitory rate)” value in the assay on HPV16 E7 mRNA (0.067 μg/ml) is given as 0.455; in the assay on HPV16 E7 mRNA (0.2 μg/ml), 0.449. The OD is 0.8367 in assay [1] (0.097656 μg/ml); 0.7847 in assay [1] (0.195313 μg/ml); 0.6353 in assay [1] (0.390625 μg/ml); 0.5667 in assay [1] (0.78125 μg/ml); 0.488 in assay [1] (1.5625 μg/ml); 0.4667 in assay [1] (3.125 μg/ml). The OD turned out to be 0.4117 in assay [1] (6.25 μg/ml); 0.3033 in assay [1] (12.5 μg/ml); 0.283 in assay [1] (25 μg/ml); 0.28 in assay [1] (50 μg/ml); 0.2967 in assay [1] (100 μg/ml); 0.4373 in assay [1] (200 μg/ml). In addition, the IC50 value result in assay [1] is reported as “about 1.5 μg/ml”.
